Data from the NIST ThermoML archive (doi:10.1021/acs.jced.8b00699).
± gives the expanded uncertainty stated by the source.

Conditions: Liquid, Closed cell (Static) method

Compound | vapor or sublimation pressure (238.15 K) | vapor or sublimation pressure (243.15 K) | vapor or sublimation pressure (248.15 K) | vapor or sublimation pressure (253.15 K) | vapor or sublimation pressure (258.15 K) | vapor or sublimation pressure (263.15 K) | vapor or sublimation pressure (268.15 K) | vapor or sublimation pressure (273.15 K) | vapor or sublimation pressure (273.66 K) | vapor or sublimation pressure (278.16 K) | vapor or sublimation pressure (283.15 K) | vapor or sublimation pressure (288.15 K) | vapor or sublimation pressure (293.15 K) | vapor or sublimation pressure (298.15 K) | vapor or sublimation pressure (303.16 K) | vapor or sublimation pressure (308.18 K) | vapor or sublimation pressure (278.15 K) | vapor or sublimation pressure (273.65 K) | vapor or sublimation pressure (303.15 K) | vapor or sublimation pressure (308.15 K)
CCCCCCC#N [heptanenitrile] | 0.00048 ± 0.00011 kPa | 0.00085 ± 0.00012 kPa | 0.00146 ± 0.00013 kPa | 0.00246 ± 0.00015 kPa | 0.00408 ± 0.00019 kPa | 0.00662 ± 0.00028 kPa | 0.01055 ± 0.00042 kPa | 0.01647 ± 0.00057 kPa | 0.01723 ± 0.00058 kPa | 0.02527 ± 0.00071 kPa | 0.03801 ± 0.00091 kPa | 0.05634 ± 0.0012 kPa | 0.0819 ± 0.0017 kPa | 0.1175 ± 0.0023 kPa | 0.1649 ± 0.0027 kPa | 0.2302 ± 0.0035 kPa | – | – | – | –
CCCCCCCCC#N [nonanenitrile] | – | – | – | – | – | – | – | – | 0.00148 ± 0.00013 kPa | – | 0.0037 ± 0.00018 kPa | 0.00585 ± 0.00025 kPa | 0.00907 ± 0.00037 kPa | 0.01387 ± 0.00053 kPa | 0.02079 ± 0.00064 kPa | 0.03074 ± 0.00079 kPa | 0.00231 ± 0.00015 kPa | – | – | –
CCCCCCCC#N [octanenitrile] | 0.00012 ± 0.00011 kPa | 0.00021 ± 0.00011 kPa | 0.00037 ± 0.00012 kPa | 0.00064 ± 0.00012 kPa | 0.00108 ± 0.00012 kPa | 0.0018 ± 0.00014 kPa | 0.00295 ± 0.00016 kPa | 0.00476 ± 0.00021 kPa | – | – | 0.01175 ± 0.00047 kPa | 0.01796 ± 0.00059 kPa | 0.02693 ± 0.00073 kPa | 0.0398 ± 0.00094 kPa | – | – | 0.00758 ± 0.00031 kPa | 0.00502 ± 0.00022 kPa | 0.05793 ± 0.0013 kPa | 0.08314 ± 0.0017 kPa
